In patent US20250136568A1, “FUSED HETEROCYCLIC COMPOUNDS AS PI3KALPHA INHIBITORS” (Nanjing Zenshine Pharmaceuticals Co., Ltd., priority 2021, published 2025):
Read-outs that look alike come from different tables or passages of the source.

Columns and labels:
Format in all cases: cell-based
[1] = system: PI3Kα H1047R mutation cell line T-47D; experiment: Cell Proliferation IC50 Assay (CellTiter-Glo), T-47D; conditions: T47D (H1047R), 72 hours, CellTiter-Glo, read-out: IC50 (μM) T47D
In short: (§1)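 Read-out was CellTiter-Glo luminescence after 72 h of compound exposure at 37 °C, 5% CO2. Cells had been plated overnight in complete medium before the compound was added at a 200-fold final dilution. IC50 was derived from percent inhibition.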

[2] = system: PI3Kα wide type cell line SK-BR-3; experiment: Cell Proliferation IC50 Assay (CellTiter-Glo), SK-BR-3; conditions: SK-BR-3 (PI3Kα wild type), 72 hours, CellTiter-Glo, read-out: IC50 (μM) SK-BR-3
In short: as §1

[3] = system: PI3Kα H1047R mutation cell line MDA-MB-453; experiment: Cell Proliferation IC50 Assay (CellTiter-Glo), MDA-MB-453; conditions: MDA-MB-453 (H1047R), 72 hours, CellTiter-Glo, read-out: IC50 (μM) MDA-MB-453
In short: as §1

IC50 ([1]; Homo sapiens, T47D, 72 h) [µM]	IC50 ([2]; Homo sapiens) [µM]	IC50 ([3]; Homo sapiens) [µM]	Structure (SMILES)	IC50 [1] [µM]	IC50 [2] [µM]	IC50 [3] [µM]
3.2	> 10	6.3	Cc1cc(C(C)Nc2ccccc2C(=O)O)c2oc(-c3ccc4c(c3)C(=O)N(C)C4)cc(=O)c2c1 (stereo not drawn) [Example 23, 2-((1-(6-methyl-2-(2-methyl-3-oxoisoindolin-5-yl)-4-oxo-4H-chromen-8-yl)ethyl)amino)benzoic acid]	–	–	–
0.27	> 10	0.32	Cc1cc(C(C)Nc2ccccc2C(=O)O)c2oc(-c3cc4ccccc4[nH]3)cc(=O)c2c1 (stereo not drawn) [Example 25, 2-((1-(2-(1H-indol-2-yl)-6-methyl-4-oxo-4H-chromen-8-yl)ethyl)amino)benzoic acid]	–	–	–
0.66	> 10	0.83	Cc1cc(C(C)Nc2ccccc2C(=O)O)c2oc(-c3cccs3)cc(=O)c2c1 (stereo not drawn) [Example 26, 2-((1-(6-methyl-4-oxo-2-(thiophen-2-yl)-4H-chromen-8-yl)ethyl)amino)benzoic acid]	–	–	–
1.77	> 10	3.61	CC(=O)N1CCC(c2cc(=O)c3cc(C)cc(C(C)Nc4ccccc4C(=O)O)c3o2)CC1 (stereo not drawn) [Example 28, 2-((1-(2-(1-acetylpiperidin-4-yl)-6-methyl-4-oxo-4H-chromen-8-yl)ethyl)amino)benzoic acid]	–	–	–
4.13	> 10	> 10	Cc1cc(C(C)Nc2ccccc2C(=O)O)c2oc(C3CCN(C(=O)C(F)(F)F)CC3)cc(=O)c2c1 (stereo not drawn) [Example 29, 2-((1-(6-methyl-4-oxo-2-(1-(2,2,2-trifluoroacetyl)piperidin-4-yl)-4H-chromen-8-yl)ethyl)amino)benzoic acid]	–	–	–
1.87	> 10	4	Cc1cc(C(C)Nc2ccccc2C(=O)O)c2oc(C3CCN(C(=O)C4CC4)CC3)cc(=O)c2c1 (stereo not drawn) [Example 30, 2-((1-(2-(1-(cyclopropanecarbonyl)piperidin-4-yl)-6-methyl-4-oxo-4H-chromen-8-yl)ethyl)amino)benzoic acid]	–	–	–
0.75	> 10	1.38	Cc1cc(C(C)Nc2ccccc2C(=O)O)c2oc(-c3cccnc3)cc(=O)c2c1 (stereo not drawn) [Example 32, 2-((1-(6-methyl-4-oxo-2-(pyridin-3-yl)-4H-chromen-8-yl)ethyl)amino)benzoic acid]	–	–	–
0.32	> 10	0.42	Cc1cc(C(C)Nc2ccccc2C(=O)O)c2oc(-c3ccncc3)cc(=O)c2c1 (stereo not drawn) [Example 33, 2-((1-(6-methyl-4-oxo-2-(pyridin-4-yl)-4H-chromen-8-yl)ethyl)amino)benzoic acid]	–	–	–
4.63	> 10	7.82	Cc1cc(C(C)Nc2ccccc2C(=O)O)c2oc(-c3ccn(C)c(=O)c3)cc(=O)c2c1 (stereo not drawn) [Example 34, 2-((1-(6-methyl-2-(1-methyl-2-oxo-1,2-dihydropyridin-4-yl)-4-oxo-4H-chromen-8-yl)ethyl)amino)benzoic acid]	–	–	–
0.5	> 10	0.57	Cc1cc(C(C)Nc2ccccc2C(=O)O)c2oc(-c3ccc4ncccc4c3)cc(=O)c2c1 (stereo not drawn) [Example 35, 2-((1-(6-methyl-4-oxo-2-(quinolin-6-yl)-4H-chromen-8-yl)ethyl)amino)benzoic acid]	–	–	–
0.42	> 10	0.8	Cc1cc(C(C)Nc2ccccc2C(=O)O)c2oc(-c3ccc4c(cnn4C)c3)cc(=O)c2c1 (stereo not drawn) [Example 37, 2-((1-(6-methyl-2-(1-methyl-1H-indazol-5-yl)-4-oxo-4H-chromen-8-yl)ethyl)amino)benzoic acid]	–	–	–
–	–	–	Cc1cc([C@H](C)Nc2ccccc2C(=O)O)c2oc(-c3ccc4nn(C)cc4c3)cc(=O)c2c1 [Example 38A, (S)-2-((1-(6-methyl-2-(2-menthyl-2H-indazol-5-yl)-4-oxo-411-chromen-8-yl)ethyl)amino)benzoic acid]	> 10	> 10	> 10
0.08	> 10	0.15	Cc1cc(C(C)Nc2ccccc2C(=O)O)c2oc(-c3ccc4nn(C)cc4c3)cc(=O)c2c1 (stereo not drawn) [Example 38]	–	–	–
